For this experiment, the target named is Parkin (Homo sapiens, UniProt O60260). The experiment is described as follows: Parkin pUB Auto-ubiquitinylation Assay (TR-FRET). It is filed as biochemical. The conditions noted are these: Parkin activation, pUb activated Parkin; read-out: Auto-ubiq EC50 (μM) [Example 3]. The source says: A Parkin pUB Auto-ubiquitinylation Assay is used to evaluate a compound's potency to activate Parkin's ability to Auto-ubiquitinylate itself.
The principle of this assay is that the E3 Ligase Parkin catalyzes the transfer of Ubiquitin to target proteins, but also has the ability to auto-ubiquitinylate itself. The phospho-Ubiquition (pUb) added to the assay alters the Parkin to a state where small molecule activators can enable the Parkin to auto-ubiquitinylate though the E1-E2 cascade reaction. The use of a Eu cryptate Ubiquition and anti 6His-d2 that binds to the His tagged Parkin will give a signal when the Eu cryptate Ubiquition is auto-ubiquitinylate onto the Parkin which can be monitored by TR-FRET.
Similar to the Activity-based probe assay in Example 2, screening for activating compounds can be distinguished from the controls as follows: • 100% activation signal=pUb activated Parkin+40 nM control activator in DMSO. • 0% activation signal=pUb activated Parkin+DMSO only. • Parkin activators can be identified by an increase of the 0% activation signal TR-FRET signal. Materials: • Assay Plate: White 384 well plate (Corning 3572) • Enzyme 1: E1 (Ubiquitin-activating enzyme/UBE1 Boston Biochem E-305) • Enzyme 2: E2 (UBcH7/Ube2L3 Boston Biochem E2-640) • Enzyme 3: Parkin-His tagged 203 μM (10.5 mg/ml) • pUb: Phospho-Ubiquitin (S65) (Boston Biochem U-102) • Eu Cryptate Reagent: Ubiquitin Eu (CisBio 61UBIKLA) • DMSO: DMSO (Sigma-34869-2.5L) • Reaction Buffer: 50 mM HEPES, 50 mM NaCl, 1 mM MgCl2, 0.005% Tween 20, 0.1% PF-127 (Fisher Scientific 50-310-494), pH 8.5 • Detection Buffer: 50 mM HEPES, 50 mM NaCl, 800 mM KF, 5 mM EDTA, 0.005% Tween 20, 0.1% PF-127, pH 8.5 • Detection Reagent Z: 13.4 nM Anti-6His-d2 in detection buffer • d2 Reagent: Anti-6His-d2 (CisBio 61HISDLA)
Enzyme Reaction (15 min pre-incubation with Parkin, pUb and activator only) • Parkin: 196 nM • pUb: 196 nM • DMSO: 1% DMSO • E1: 5 nM • E2: 50 nM • Ubiquitin Eu: 8.8 nM • Reaction time: 120 minutes • Temperature: 22° C. • Total volume: 10 μl reaction
Take 10 μl of Enzyme Reaction above and add 10 μl detection Reagent Z under the following conditions:
Assay Procedure: • 1) Load assay plate wells with 4.9 μl 400.0 nM Parkin, 400 nM pUb in reaction buffer by use of Eppendorf 12-channel pipette. • 2) Deliver 0.1 μl 100× activator candidates in DMSO by use of Echo 555 compound dispenser. Highest 100× concentration=100 μm and then twofold dilutions. Add each compound and control in duplicate wells. • 3) Spin 1000 rpm, 2 minutes, at room temp. • 4) Incubate plate for 15 minutes at room temp. • 5) Add 5 μl 10 nM E1, 100 nM E2, 17.6 nM Ubiquitin Eu and 2 mM ATP in Reaction Buffer by use of Eppendorf 12-channel pipette. • 6) Spin 1000 rpm, 2 minutes, at room temp. • 7) Incubate plate for 120 minutes at room temp. • 8) Add 10 μl 13.4 nM anti his d2 in detection buffer by use of Eppendorf 12-channel pipette. • 9) Spin 1000 rpm, 2 minutes, at room temp. • 10) Incubate plate for 120 minutes at room temp. • 11) Read plates on Perkin Elmer Envision instrument with the following parameters: • LANCE dual laser protocol loaded into the Envision® software • Top Mirror: LANCE/DELFIA Duel/Bias (Bar code 446) • Emission Filter: APC 665 EM (Bar code 205) • 2nd Emission Filter: Europium 615 EM (Bar code 203) • Read 655 nm (channel 1) and 615 nm (channel 2) wavelengths on Envision®
Data Analysis: The Data can be read in CSV files. There are two tables in those CSV files, which are the values of 655 nm (channel 1) and 615 nm (channel 2) wavelengths respectively. The data is converted to an HTRF Ratio=(Channel 1/Channel 2)*10,000
The average of all the 0 uM controls (DMSO only)=BKGD (Background—0% activation). Subtract BKGD from each HTRF Ratio value=HTRF-BKGD. The average of all the […] control activator in DMSO controls=Max (100% activation). The following equation is then used to calculate % Activation for each well/candidate as follows: % Activation=(HTRF-BKGD/Max)*100. […]
(In general: Time-resolved FRET reads energy transfer from a long-lived donor to a nearby acceptor.)

Sequence of Parkin (O60260 whole entry, other chains not shown): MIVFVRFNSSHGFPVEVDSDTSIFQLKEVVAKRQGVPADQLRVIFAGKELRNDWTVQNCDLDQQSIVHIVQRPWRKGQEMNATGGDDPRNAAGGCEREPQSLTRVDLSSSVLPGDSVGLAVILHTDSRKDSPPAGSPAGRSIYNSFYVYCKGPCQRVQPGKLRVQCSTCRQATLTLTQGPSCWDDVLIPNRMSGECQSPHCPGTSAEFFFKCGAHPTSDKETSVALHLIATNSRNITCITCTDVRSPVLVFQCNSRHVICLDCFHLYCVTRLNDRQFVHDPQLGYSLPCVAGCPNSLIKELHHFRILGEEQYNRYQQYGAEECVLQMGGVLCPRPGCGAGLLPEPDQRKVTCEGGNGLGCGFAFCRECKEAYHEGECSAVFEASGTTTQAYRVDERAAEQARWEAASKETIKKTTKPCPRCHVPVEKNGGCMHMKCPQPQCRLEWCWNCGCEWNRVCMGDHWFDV

The EC50 is the concentration giving half of the maximal effect. With `O=C(Nc1nc(NC(=O)c2ccccc2)n(-c2ccc(-c3ccccc3)cc2)n1)c1ccccc1` [Compound X1], the EC50 is more than 40 µM.

As for `Cc1ccccc1C(=O)Nc1nc(NC(=O)c2ccccc2C)n(-c2ccccn2)n1` [Compound X2], the EC50 was more than 40 µM.

On to `O=C(Nc1nc(-c2ccccn2)nn1-c1ccccc1)c1ccccc1` [Compound Y1, N-(1-phenyl-3-(pyridin-2-yl)-1H-1,2,4-triazol-5-yl)benzamide], for which the EC50 is more than 40 µM.

In the case of `O=C(Nc1nc(NC(=O)c2ccccc2)n(-c2ccc(OC(F)(F)F)cc2)n1)c1ccccc1` [Compound Z1], the concentration for a half-maximal effect (EC50) was more than 40 µM.

As to `O=C(Nc1nc(NC(=O)c2ccc(I)cc2)n(-c2ccccc2)n1)c1ccc(I)cc1` [D], the EC50 was more than 40 µM.

For the compound `CN(C(=O)c1ccccc1)c1nc(NC(=O)c2ccccc2)n(-c2ccccc2)n1` [G], the EC50 was more than 40 µM.

Consider `O=C(Nc1nc(Nc2ncnc3ccccc23)nn1-c1ccccc1)c1ccccc1` [I], for which the half-maximal effective concentration (EC50) was more than 40 µM.

As for `CN(C(=O)c1ccccc1)c1nc(N(C)C(=O)c2ccccc2)n(-c2ccccc2)n1` [J], the EC50 is more than 40 µM.

As for `Cc1ccccc1-n1nc(NC(=O)c2ccccc2)nc1NC(=O)c1ccccc1` [M], the half-maximal effective concentration (EC50) was more than 40 µM.

Turning to `O=C(Nc1nc(-c2ccccn2)nn1-c1ccccc1)c1ccccc1` [T], the EC50 is more than 40 µM.

In the case of `O=C(Nc1nc(Nc2nccc3ccccc23)n(-c2ccccc2)n1)c1ccccc1` [U], the concentration for a half-maximal effect (EC50) was more than 40 µM.

Take `CN(C(=O)c1ccccc1)c1nc(NC(=O)c2ccccc2)nn1-c1ccccc1` [V]: the concentration giving a half-maximal response (EC50) was more than 40 µM.

Take `CCN(CC)c1nc(Nc2nc(NC(=O)c3ccccc3)nn2-c2ccccc2)c2ccccc2n1` [W]: the EC50 was more than 40 µM.

On to `CCN(CC)c1nc(Nc2nc(NC(=O)c3ccccc3)nn2-c2ccccc2)nc2ccccc12` [X], for which the EC50 was more than 40 µM.

For `O=C(Nc1nc(Nc2ncnc3ccccc23)n(-c2ccccc2)n1)c1ccco1` [Z], the EC50 is more than 40 µM.

These data come from patent US10308617B2, “Triazole benzamide derivatives and the compositions and methods of treatment regarding the same” (An2H Discovery Limited, priority 2016, dated 2019).
